Laboratory results taken from the supplement of paper PMC13380429.
± gives the standard deviation of the averaged measurements.

Tests used:
Settings in all cases: 72 h
HepG2 [1] = experiment: cell viability relative to DMSO; higher = less toxic
Vero E6 [2] = experiment: as above
U2OS [3] = experiment: as above
Calu-3 [4] = experiment: as above
Caco-2 [5] = experiment: as above
HepG2 [6] = experiment: relative viability EC50 (midpoint between 100% and the lowest measured viability); higher = less toxic
Vero E6 [7] = experiment: as above
U2OS [8] = experiment: as above
Calu-3 [9] = experiment: as above
Caco-2 [10] = experiment: as above
HepG2 [11] = experiment: drug sensitivity score (DSS) for viability; higher = more toxic; extreme values may be limits of the assay
Vero E6 [12] = experiment: as above
U2OS [13] = experiment: as above
Calu-3 [14] = experiment: as above
Caco-2 [15] = experiment: as above

| SMILES | cell viability (HepG2 [1]; 1 nM) | cell viability (HepG2 [1]; 10 nM) | cell viability (HepG2 [1]; 100 nM) | cell viability (HepG2 [1]; 1000 nM) | cell viability (HepG2 [1]; 10000 nM) | cell viability (Vero E6 [2]; 1 nM) | cell viability (Vero E6 [2]; 10 nM) | cell viability (Vero E6 [2]; 100 nM) | cell viability (Vero E6 [2]; 1000 nM) | cell viability (Vero E6 [2]; 10000 nM) | cell viability (U2OS [3]; 1 nM) | cell viability (U2OS [3]; 10 nM) | cell viability (U2OS [3]; 100 nM) | cell viability (U2OS [3]; 1000 nM) | cell viability (U2OS [3]; 10000 nM) | cell viability (Calu-3 [4]; 1 nM) | cell viability (Calu-3 [4]; 10 nM) | cell viability (Calu-3 [4]; 100 nM) | cell viability (Calu-3 [4]; 1000 nM) | cell viability (Calu-3 [4]; 10000 nM) | cell viability (Caco-2 [5]; 1 nM) | cell viability (Caco-2 [5]; 10 nM) | cell viability (Caco-2 [5]; 100 nM) | cell viability (Caco-2 [5]; 1000 nM) | cell viability (Caco-2 [5]; 10000 nM) | relative viability EC50 (HepG2 [6]) | relative viability EC50 (Vero E6 [7]) | relative viability EC50 (U2OS [8]) | relative viability EC50 (Calu-3 [9]) | relative viability EC50 (Caco-2 [10]) | drug sensitivity score (HepG2 [11]) | drug sensitivity score (Vero E6 [12]) | drug sensitivity score (U2OS [13]) | drug sensitivity score (Calu-3 [14]) | drug sensitivity score (Caco-2 [15]) |
| --- | --- | --- | --- | --- | --- | --- | --- | --- | --- | --- | --- | --- | --- | --- | --- | --- | --- | --- | --- | --- | --- | --- | --- | --- | --- | --- | --- | --- | --- | --- | --- | --- | --- | --- | --- |
| CCc1cnn2c(NCc3ccc[n+]([O-])c3)cc(N3CCCC[C@H]3CCO)nc12 [dinaciclib] | 99.9% | 55.6% | 5.7% | 6.4% | 6.4% | 101% | 100% | 14.8% | 7% | 4.5% | 99.3% | 56% | 3.6% | 4% | 5.4% | 103% | 83.2% | 39.9% | 39.3% | 39.6% | 100% | 77.9% | 19.9% | 25.1% | 30.8% | 0.0105 µM | 0.044 µM | 0.0107 µM | 0.0147 µM | 0.0147 µM | 34.5 | 27.5 | 35.2 | 21.6 | 28.2 |
| CCOC(=S)SSC(=S)OCC [dixanthogen] | 101% | 111% | 101% | 95.1% | 88.8% | 97.3% | 95.6% | 91.5% | 90.4% | 97.3% | 104% | 99.7% | 100% | 101% | 104% | 101% | 106% | 104% | 96% | 103% | 104% | 96.3% | 104% | 118% | 104% | > 10 µM | > 10 µM | > 10 µM | > 10 µM | > 10 µM | 0.1 | 0 | 0 | 0 | 0 |
| N[C@H](C(=O)O)[C@H](O)c1ccc(O)c(O)c1 [droxidopa] | 90.7% | 95.5% | 98.8% | 114% | 104% | 95.1% | 102% | 96.8% | 98.5% | 104% | 98% | 95.6% | 97.5% | 97.2% | 100% | 98.8% | 98.1% | 99.7% | 87% | 102% | 95.4% | 102% | 103% | 96.4% | 102% | > 10 µM | > 10 µM | > 10 µM | > 10 µM | > 10 µM | 0 | 0 | 0 | 0 | 0 |
| Cc1cc(Cl)ccc1OCCCC(=O)NO [droxinostat] | 100% | 92.4% | 90.7% | 97.4% | 87% | 103% | 99.4% | 98.8% | 97% | 86.7% | 96.9% | 106% | 96.6% | 100% | 79.5% | 96.3% | 92.8% | 88.8% | 97.6% | 86.8% | 104% | 101% | 101% | 102% | 86.5% | > 10 µM | > 10 µM | > 10 µM | > 10 µM | > 10 µM | 0 | 0.3 | 0.6 | 0 | 0.1 |
| O=C(NCCCN1CCOCC1)c1ccc(Cl)cc1 [eprobemide] | 108% | 107% | 88.6% | 110% | 76.6% | 92.1% | 96.3% | 100% | 99.1% | 99.6% | 102% | 92.7% | 103% | 97.4% | 99.5% | 105% | 87.6% | 105% | 92.2% | 103% | 106% | 92.3% | 108% | 103% | 98.8% | > 10 µM | > 10 µM | > 10 µM | > 10 µM | > 10 µM | 0.5 | 0 | 0 | 0 | 0 |
| O=C(O)CSCC(=O)NC1CCSC1=O (stereo not given) [erdosteine] | 90.5% | 102% | 94.3% | 93.8% | 102% | 111% | 96.9% | 104% | 91% | 96.8% | 100% | 105% | 96.2% | 97.9% | 101% | 99.8% | 96% | 102% | 92.9% | 98% | 107% | 102% | 97% | 84.8% | 96.9% | > 10 µM | > 10 µM | > 10 µM | > 10 µM | > 10 µM | 0 | 0 | 0 | 0 | 0 |
| O=C(CN1CCN(Cc2ccc3c(c2)OCO3)CC1)N1c2ccccc2Sc2ccccc21 [fenoverine] | 94.6% | 104% | 101% | 90% | 90.3% | 87.4% | 98.2% | 98.4% | 95% | 84.7% | 95.1% | 97.2% | 98.1% | 94.9% | 96.7% | 92.8% | 109% | 99.2% | 103% | 110% | 106% | 110% | 105% | 98.5% | 82.7% | > 10 µM | > 10 µM | > 10 µM | > 10 µM | > 10 µM | 0 | 0 | 0 | 0 | 0.6 |
| CC(=O)OCC(=O)[C@@]12OC(C)(C)O[C@@H]1C[C@H]1[C@@H]3C[C@H](F)C4=CC(=O)C=C[C@]4(C)[C@@]3(F)[C@@H](O)C[C@@]12C [fluocinonide] | 100 ± 2.5% | 95.5 ± 6% | 101 ± 8.3% | 104 ± 1.2% | 100 ± 6.2% | 101 ± 7.7% | 93.6 ± 0.57% | 97.9 ± 13% | 96.7 ± 5.4% | 98.5 ± 2.8% | 98.5 ± 1.5% | 96 ± 3.3% | 95.2 ± 1.4% | 96.7 ± 4.4% | 98.7 ± 4.3% | 102 ± 7.5% | 97.2 ± 6% | 87.8 ± 1.1% | 98.2 ± 3.8% | 101 ± 3.7% | 91.5% | 95.6% | 93.8% | 104% | 99.2% | > 10 µM | > 10 µM | > 10 µM | > 10 µM | > 10 µM | 0 | 0 | 0 | 0 | 0 |
| O=c1[nH]cnc2c([C@@H]3N[C@H](CO)[C@@H](O)[C@H]3O)c[nH]c12 [forodesine] | 106% | 104% | 110% | 92.6% | 102% | 103% | 96.8% | 96.8% | 97.2% | 94.7% | 102% | 97.6% | 94.4% | 103% | 98% | 92.4% | 89% | 97.2% | 91.5% | 94.4% | 103% | 98.4% | 98.4% | 101% | 98.6% | > 10 µM | > 10 µM | > 10 µM | > 10 µM | > 10 µM | 0 | 0 | 0 | 0 | 0 |
| CC(C)CN(C[C@@H](OP(=O)(O)O)[C@H](Cc1ccccc1)NC(=O)O[C@H]1CCOC1)S(=O)(=O)c1ccc(N)cc1 [fosamprenavir] | 99.8% | 106% | 102% | 93.5% | 98.7% | 102% | 101% | 99% | 100% | 96.5% | 101% | 94.8% | 95.9% | 94.2% | 109% | 113% | 103% | 107% | 98.2% | 108% | 93.7% | 91.5% | 96.5% | 98.1% | 99.6% | > 10 µM | > 10 µM | > 10 µM | > 10 µM | > 10 µM | 0 | 0 | 0 | 0 | 0 |
| COc1ccc(/C=C\c2cc(OC)c(OC)c(OC)c2)cc1OP(=O)(O)O [fosbretabulin] | 104% | 108% | 96.7% | 21.9% | 23.9% | 103% | 100% | 38.4% | 13% | 7% | 98.4% | 105% | 94% | 25.4% | 19.5% | 104% | 120% | 90.2% | 61.4% | 45.9% | 104% | 116% | 55.4% | 51.1% | 45.4% | 0.285 µM | 0.0744 µM | 0.316 µM | 0.457 µM | 0.0584 µM | 14.7 | 24.1 | 14.6 | 8.1 | 15.2 |
| N[C@@H](CSCCCO)C(=O)O [fudosteine] | 93.1% | 83.3% | 96.1% | 88.8% | 105% | 97.7% | 92.7% | 99.6% | 94.1% | 100% | 96.4% | 101% | 97.2% | 102% | 108% | 102% | 111% | 107% | 96.8% | 115% | 96.1% | 93.9% | 97.3% | 97.2% | 106% | > 10 µM | > 10 µM | > 10 µM | > 10 µM | > 10 µM | 0 | 0 | 0 | 0 | 0 |
| CC(C)=CCC/C(C)=C/CC/C(C)=C/CCC(=O)OC/C=C(\C)CCC=C(C)C [geranyl-farnesylacetate] | 101% | 107% | 90.8% | 112% | 110% | 104% | 102% | 94.4% | 105% | 115% | 98.4% | 95.3% | 102% | 96.7% | 103% | 99.1% | 94.6% | 96.8% | 93% | 96.4% | 95.6% | 95.8% | 106% | 91.4% | 98.9% | > 10 µM | > 10 µM | > 10 µM | > 10 µM | > 10 µM | 0 | 0 | 0 | 0 | 0 |
| CC(C)Cn1cnc2c(N)nc3ccccc3c21 [imiquimod] | 93.6% | 95.5% | 100% | 109% | 112% | 93.1% | 93.2% | 99% | 88.9% | 100% | 92.7% | 101% | 94.3% | 100% | 105% | 103% | 96% | 102% | 94.5% | 103% | 96.4% | 92.9% | 105% | 97.7% | 100% | > 10 µM | > 10 µM | > 10 µM | > 10 µM | > 10 µM | 0 | 0 | 0 | 0 | 0 |
